Assay results taken from patent publication US12655107B2 (The United States of America, as represented by the …, priority 2018, dated 2026).

Columns and labels:
A549 = assay: MTT cytotoxicity assay, A549; type: cell-based, human; conditions: 72 h, Table 7, read-out: GI50 ± SC (μM) A-49
Method: Cytotoxicity Assays. […] The cells were incubated with the tested compounds for 72 hours in a five-dose assay ranging from 0.01 to 100 μM concentration. After drug treatments, MTT solution was added to test the percentage growth of tumor cells.
The compounds were incubated with the cells for 72 hours in a five-dose assay ranging from 0.01 to 100 μM concentration. At the end of the incubation, the MTT solution was added to test the percentage growth of tumor cells.
For the drug treatment experiments, the cancer cells were treated with the compounds (predissolved in DMSO) at a five-dose assay ranging from 0.01 to 100 μM concentration. […] After 4 h incubation, the formazan crystal formed in the well was dissolved with […] of DMSO for optical density reading at 570 nm. The GI50 value was calculated by nonlinear regression analysis (GraphPad Prism).

OVCAR-3 = assay: NCI-60 cytotoxicity; type: cell-based, human; conditions: NCI-60 Ovarian Cancer, 48 h
Method: (§1) Cell growth inhibition (GI50 in Table 3) was calculated relative to cells without compound treatment and the time zero control.
(§2) Regarding Table 8, according to the NCI established procedures, the cells were incubated with 67 or 50 for 48 hours and stained with sulforhodamine B dye.

HOP-62 = assay: NCI-60 cytotoxicity; type: cell-based, human; conditions: NCI-60 Non-Small Cell Lung Cancer, 48 h
Method: as §1, §2

OVCAR-5 = assay: NCI-60 cytotoxicity; type: cell-based, human; conditions: NCI-60 Ovarian Cancer, 48 h
Method: as §1, §2

T-47D = assay: NCI-60 cytotoxicity; type: cell-based, human; conditions: NCI-60 Breast Cancer, 48 h
Method: as §1, §2

A498 = assay: NCI-60 cytotoxicity; type: cell-based, human; conditions: NCI-60 Renal Cancer, 48 h
Method: as §1, §2

UACC-62 = assay: NCI-60 cytotoxicity; type: cell-based, human; conditions: NCI-60 Melanoma, 48 h
Method: as §1, §2

TK-10 = assay: NCI-60 cytotoxicity; type: cell-based, human; conditions: NCI-60 Renal Cancer, 48 h
Method: as §1, §2

MALME-3M = assay: NCI-60 cytotoxicity; type: cell-based, human; conditions: read-out: GI50 (μM) MALME-3M; NCI-60 Melanoma, 48 h
Method: as §1, §2

SR = assay: NCI-60 cytotoxicity; type: cell-based, human; conditions: NCI-60 Leukemia, 48 h
Method: as §1, §2

K-562 = assay: NCI-60 cytotoxicity; type: cell-based, human; conditions: NCI-60 Leukemia, 48 h
Method: as §1, §2

NCI/ADR-RES = assay: NCI-60 cytotoxicity; type: cell-based, human; conditions: NCI-60 Ovarian Cancer, 48 h
Method: as §1, §2

MOLT-4 = assay: NCI-60 cytotoxicity; type: cell-based, human; conditions: NCI-60 Leukemia, 48 h
Method: as §1, §2

U251 = assay: NCI-60 cytotoxicity; type: cell-based, human; conditions: NCI-60 CNS Cancer, 48 h
Method: as §1, §2

SF-539 = assay: NCI-60 cytotoxicity; type: cell-based, human; conditions: NCI-60 CNS Cancer, 48 h
Method: as §1, §2

UO-31 = assay: NCI-60 cytotoxicity; type: cell-based, human; conditions: NCI-60 Renal Cancer, 48 h
Method: as §1, §2

SW-620 = assay: NCI-60 cytotoxicity; type: cell-based, human; conditions: NCI-60 Colon Cancer, 48 h
Method: as §1, §2

MDA-MB-435 = assay: NCI-60 cytotoxicity; type: cell-based, human; conditions: NCI-60 Melanoma, 48 h
Method: as §1, §2

HCT-15 = assay: NCI-60 cytotoxicity; type: cell-based, human; conditions: NCI-60 Colon Cancer, 48 h
Method: as §1, §2

HCT116 = assay: NCI-60 cytotoxicity; type: cell-based, human; conditions: NCI-60 Colon Cancer, 48 h
Method: as §1, §2

SF-295 = assay: NCI-60 cytotoxicity; type: cell-based, human; conditions: NCI-60 CNS Cancer, 48 h
Method: as §1, §2

COLO 205 = assay: NCI-60 cytotoxicity; type: cell-based, human; conditions: NCI-60 Colon Cancer, 48 h
Method: as §1, §2

SF-268 = assay: NCI-60 cytotoxicity; type: cell-based, human; conditions: NCI-60 CNS Cancer, 48 h
Method: as §1, §2

M14 = assay: NCI-60 cytotoxicity; type: cell-based, human; conditions: NCI-60 Melanoma, 48 h
Method: as §1, §2

MDA-MB-468 = assay: NCI-60 cytotoxicity; type: cell-based, human; conditions: NCI-60 Breast Cancer, 48 h
Method: as §1, §2

NCI-H522 = assay: NCI-60 cytotoxicity; type: cell-based, human; conditions: NCI-60 Non-Small Cell Lung Cancer, 48 h
Method: as §1, §2

RPMI-8226 = assay: NCI-60 cytotoxicity; type: cell-based, human; conditions: NCI-60 Leukemia, 48 h
Method: as §1, §2

786-0 = assay: NCI-60 cytotoxicity; type: cell-based, human; conditions: NCI-60 Renal Cancer, 48 h
Method: as §1, §2

BT-549 = assay: NCI-60 cytotoxicity; type: cell-based, human; conditions: NCI-60 Breast Cancer, 48 h
Method: as §1, §2

DU-145 = assay: NCI-60 cytotoxicity; type: cell-based, human; conditions: read-out: GI50 (μM) DU-145; NCI-60 Prostate Cancer, 48 h
Method: as §1, §2

SK-MEL-2 = assay: NCI-60 cytotoxicity; type: cell-based, human; conditions: NCI-60 Melanoma, 48 h
Method: as §1, §2

RXF 393 = assay: NCI-60 cytotoxicity; type: cell-based, human; conditions: NCI-60 Renal Cancer, 48 h
Method: as §1, §2

NCI-H322M = assay: NCI-60 cytotoxicity; type: cell-based, human; conditions: NCI-60 Non-Small Cell Lung Cancer, 48 h
Method: as §1, §2

SN 12C = assay: NCI-60 cytotoxicity; type: cell-based, human; conditions: NCI-60 Renal Cancer, 48 h
Method: as §1, §2

MCF7 = assay: NCI-60 cytotoxicity; type: cell-based, human; conditions: NCI-60 Breast Cancer, 48 h
Method: as §1, §2

IGROV1 = assay: NCI-60 cytotoxicity; type: cell-based, human; conditions: NCI-60 Ovarian Cancer, 48 h
Method: as §1, §2

A549/ATCC = assay: NCI-60 cytotoxicity; type: cell-based, human; conditions: NCI-60 Non-Small Cell Lung Cancer, 48 h
Method: as §1, §2

NCI-H23 = assay: NCI-60 cytotoxicity; type: cell-based, human; conditions: NCI-60 Non-Small Cell Lung Cancer, 48 h
Method: as §1, §2

SK-OV-3 = assay: NCI-60 cytotoxicity; type: cell-based, human; conditions: NCI-60 Ovarian Cancer, 48 h
Method: as §1, §2

NCI-60 cell lines = assay: NCI-60 cytotoxicity, mean graph midpoint; conditions: read-out: GI50 (μM) MGM; mean graph midpoint of all cell lines, 48 h, sulforhodamine B

Structure (SMILES) | GI50 (A549) [µM] | GI50 (OVCAR-3) [µM] | GI50 (HOP-62) [µM] | GI50 (OVCAR-5) [µM] | GI50 (T-47D) [µM] | GI50 (A498) [µM] | GI50 (UACC-62) [µM] | GI50 (TK-10) [µM] | GI50 (MALME-3M) [µM] | GI50 (SR) [µM] | GI50 (K-562) [µM] | GI50 (NCI/ADR-RES) [µM] | GI50 (MOLT-4) [µM] | GI50 (U251) [µM] | GI50 (SF-539) [µM] | GI50 (UO-31) [µM] | GI50 (SW-620) [µM] | GI50 (MDA-MB-435) [µM] | GI50 (HCT-15) [µM] | GI50 (HCT116) [µM] | further results
CNCCn1c(=O)c2cc(OC)c(OC)cc2c2ccc3cc4c(cc3c21)OCO4 [Compound 50, 2,3-dimethoxy-12-(2-(methylamino)ethyl)-[1,3]dioxolo[4′5′:4,5]benzo[1,2-c]phenanthridin-13(12H)-one] | 0.97 | 0.166 | 0.0439 | 0.183 | 0.0757 | 0.127 | 0.0451 | 0.316 | 0.174 | 0.0173 | 0.0394 | 0.165 | 0.0234 | 0.0394 | 0.124 | 0.104 | 0.0658 | 0.118 | 0.116 | 0.0515 | GI50 (SF-295): 0.0346 µM; GI50 (COLO 205): 0.0605 µM; GI50 (SF-268): 0.0903 µM; GI50 (M14): 0.0581 µM; GI50 (MDA-MB-468): 0.0599 µM; GI50 (NCI-H522): 0.0274 µM; GI50 (RPMI-8226): 0.0763 µM; GI50 (786-0): 0.0703 µM; GI50 (BT-549): 0.202 µM; GI50 (DU-145): 0.13 µM; GI50 (SK-MEL-2): 0.393 µM; GI50 (RXF 393): 0.16 µM; GI50 (NCI-H322M): 0.147 µM; GI50 (SN 12C): 0.171 µM; GI50 (MCF7): 0.0292 µM; GI50 (IGROV1): 0.145 µM; GI50 (A549/ATCC): 0.0948 µM; GI50 (NCI-H23): 0.0906 µM; GI50 (SK-OV-3): 0.157 µM; GI50 (NCI-60 cell lines): 0.0977 µM
COc1cc2c(=O)n(CCN)c3c4cc5c(cc4ccc3c2cc1OC)OCO5 [Compound 67, 12-(2-aminoethyl)-2,3-dimethoxy-[1,3]dioxolo[4′,5′:4,5]benzo[1,2-c]phenanthridin-13(12-H)-one] | 0.98 ± 0.014 | 0.826 | 0.399 | 1.2 | 0.368 | 1.23 | 0.278 | 1.35 | 0.613 | 0.0907 | 0.161 | 1.01 | 0.0633 | 0.26 | 1.06 | 0.35 | 0.243 | 0.759 | 0.42 | 0.285 | GI50 (SF-295): 0.279 µM; GI50 (COLO 205): 0.29 µM; GI50 (SF-268): 0.442 µM; GI50 (M14): 0.324 µM; GI50 (MDA-MB-468): 0.157 µM; GI50 (NCI-H522): 0.0875 µM; GI50 (RPMI-8226): 0.257 µM; GI50 (786-0): 0.464 µM; GI50 (BT-549): 0.918 µM; GI50 (DU-145): 0.527 µM; GI50 (SK-MEL-2): 3.01 µM; GI50 (RXF 393): 0.929 µM; GI50 (NCI-H322M): 0.99 µM; GI50 (SN 12C): 0.739 µM; GI50 (MCF7): 0.164 µM; GI50 (IGROV1): 0.5 µM; GI50 (A549/ATCC): 0.584 µM; GI50 (NCI-H23): 0.451 µM; GI50 (SK-OV-3): 1.24 µM; GI50 (NCI-60 cell lines): 0.525 µM
